Like-named read-outs stand apart in the source and are kept apart here.
Key:
[1] = system: P. falciparum male gametocytes; test: P. falciparum Dual Gamete Formation Assay (PfDGFA), male readout (exflagellation); format: cell-based, Plasmodium falciparum NF54; conditions: for Selectivity Ratio M: HepG2 Tox50 versus male IC50; for IC50: PfDGFA, 24 h incubation with gametocytes before induction, exflagellation readout, read-out: Male IC50; for HitlevelM: number of replicates with >50% inhibition in the male readout
Summary of the method: (§1)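 Day-14 NF54 gametocytes were incubated with compound for 24 h at 37°C under 1% O2/3% CO2/96% N2. Gametogenesis was triggered with ookinete medium (0.1 μM xanthurenic acid) plus Cy3-anti-Pfs25, and exflagellation was imaged by brightfield after cooling to 4°C then 28°C. Females were imaged by Pfs25 fluorescence 24 h later at 28°C.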

HepG2 cells = test: HepG2 cytotoxicity counter-screen; conditions: cytotoxic activity against HepG2 cells
[2] = system: P. falciparum female gametocytes; test: P. falciparum Dual Gamete Formation Assay (PfDGFA), female readout (Pfs25-positive female gametes); format: cell-based, Plasmodium falciparum NF54; conditions: for Selectivity ratio F: HepG2 Tox50 versus female IC50; for IC50: PfDGFA, 24 h incubation with gametocytes before induction, female gamete readout, read-out: Female IC50; for HitlevelF: number of replicates with >50% inhibition in the female readout
Summary of the method: as §1

[3] = PfDGFA at 2µM, 24h preincubation with gametocytes, average of replicates
[4] = PfDGFA at 2µM, 24h preincubation with gametocytes, replicate R1
[5] = PfDGFA at 2µM, 24h preincubation with gametocytes, replicate R3
[6] = PfDGFA at 2µM, 24h preincubation with gametocytes, replicate R4
[7] = 2µM, 24h preincubation with gametocytes prior to induction of gametogenesis, average of replicates
[8] = 2µM, 24h preincubation with gametocytes prior to induction of gametogenesis, replicate R1
[9] = 2µM, 24h preincubation with gametocytes prior to induction of gametogenesis, replicate R3
[10] = 2µM, 24h preincubation with gametocytes prior to induction of gametogenesis, replicate R4
[11] = 2µM, 24h preincubation with gametocytes, average of replicates
[12] = 2µM, 24h preincubation with gametocytes, replicate R1
[13] = 2µM, 24h preincubation with gametocytes, replicate R3
[14] = 2µM, 24h preincubation with gametocytes, replicate R4

| SMILES | IC50 [1] [nM] | IC50 [2] [nM] | Selectivity Ratio M [1] | Tox50 (HepG2 cells) [µM] | Selectivity ratio F [2] | Average inhibition male (%) [1, 3] [%] | % inhibition male (individual replicates) R1 [1, 4] [%] | % inhibition male (individual replicates) R3 [1, 5] [%] | % inhibition male (individual replicates) R4 [1, 6] [%] | HitlevelM ([1]; 2µM) | Average inhibition female (%) [2, 3] [%] | % inhibition female (individual replicates) R1 [2, 4] [%] | % inhibition female (individual replicates) R3 [2, 5] [%] | % inhibition female (individual replicates) R4 [2, 6] [%] | HitlevelF ([2]; 2µM) | further results |
| --- | --- | --- | --- | --- | --- | --- | --- | --- | --- | --- | --- | --- | --- | --- | --- | --- |
| CCS(=O)(=O)Nc1ccc2c(c1)/C(=C(/Nc1ccc(CN3CCCCC3)cc1)c1ccccc1)C(=O)N2 [TCMDC-135395] |  |  | 46.97 | 0.56 | 0.06 |  |  |  |  |  |  |  |  |  |  | inhibition at 2 µM ([1]; Plasmodium falciparum, 2µM, 24h preincubation with gametocytes, average of replicates, read-out: Average inhibition male (%)): 91.1%; inhibition at 2 µM ([1]; Plasmodium falciparum, 2µM, 24h preincubation with gametocytes, replicate R1, read-out: % inhibition male (individual replicates) R1): 87%; inhibition at 2 µM ([1]; Plasmodium falciparum, 2µM, 24h preincubation with gametocytes, replicate R2, read-out: % inhibition male (individual replicates) R2): 89.8%; inhibition at 2 µM ([1]; Plasmodium falciparum, 2µM, 24h preincubation with gametocytes, replicate R3, read-out: % inhibition male (individual replicates) R3): 92.4%; inhibition at 2 µM ([1]; Plasmodium falciparum, 2µM, 24h preincubation with gametocytes, replicate R4, read-out: % inhibition male (individual replicates) R4): 95.2%; IC50 ([1]; Plasmodium falciparum): 10 nM; inhibition at 2 µM ([2]; Plasmodium falciparum, 2µM, 24h preincubation with gametocytes, average of replicates, read-out: Average inhibition female (%)): -5.9%; inhibition at 2 µM ([2]; Plasmodium falciparum, 2µM, 24h preincubation with gametocytes, replicate R1, read-out: % inhibition female (individual replicates) R1): -6.3%; inhibition at 2 µM ([2]; Plasmodium falciparum, 2µM, 24h preincubation with gametocytes, replicate R2, read-out: % inhibition female (individual replicates) R2): -3.4%; inhibition at 2 µM ([2]; Plasmodium falciparum, 2µM, 24h preincubation with gametocytes, replicate R3, read-out: % inhibition female (individual replicates) R3): 1.2%; inhibition at 2 µM ([2]; Plasmodium falciparum, 2µM, 24h preincubation with gametocytes, replicate R4, read-out: % inhibition female (individual replicates) R4): -15.3%; IC50 ([2]; Plasmodium falciparum): > 10000 nM |
| COc1cc(NC(=O)c2sc(-c3ccc(Cl)cc3)cc2NC(=O)c2ccncc2)ccc1OCCN1CCCC1 [TCMDC-135398] | 1980 | 2460 | 3.15 | 6.24 | 2.54 | 74.1 | 92.1 | 87.5 | 101.9 | 3 | 76.4 | 76.9 | 72.6 | 86.6 | 4 |  |
| O=C(Nc1cccc(-c2nn3ncccc3c2-c2ccnc(Nc3cccc(-c4cnco4)c3)n2)c1)c1c(F)cccc1F [TCMDC-135550] | 390 |  | 4.7 | 1.85 | 0.18 |  |  |  |  |  |  |  |  |  |  | Average inhibition male (%) [1, 7]: 55.8%; % inhibition male (individual replicates) R1 [1, 8]: 81.6%; % inhibition male (individual replicates) R3 [1, 9]: 54.6%; % inhibition male (individual replicates) R4 [1, 10]: 6.2%; HitlevelM ([1]; 2µM, 24h preincubation): 3; Average inhibition female (%) [2, 7]: -4.1%; % inhibition female (individual replicates) R1 [2, 8]: -3.8%; % inhibition female (individual replicates) R3 [2, 9]: -14.6%; % inhibition female (individual replicates) R4 [2, 10]: 0.16%; HitlevelF ([2]; 2µM, 24h preincubation): 0 |
| COc1cc(Nc2nccc(-c3c(-c4cccc(NC(=O)c5c(F)cccc5F)c4)nn4ncccc34)n2)cc(OC)c1OC [TCMDC-135684] | 270 |  | 4.28 | 1.17 | 0.12 |  |  |  |  |  |  |  |  |  |  | Average inhibition male (%) [1, 11]: 97.0%; % inhibition male (individual replicates) R1 [1, 12]: 96.5%; % inhibition male (individual replicates) R3 [1, 13]: 98.0%; % inhibition male (individual replicates) R4 [1, 14]: 98.2%; Average inhibition female (%) [2, 11]: 9.6%; % inhibition female (individual replicates) R1 [2, 12]: 8.4%; % inhibition female (individual replicates) R3 [2, 13]: 15.7%; % inhibition female (individual replicates) R4 [2, 14]: 19.8% |
| CCn1c(-c2nonc2N)nc2c(-c3ccccc3)ncc(OCCCNCCCN3CCOCC3)c21.O=C(O)C(F)(F)F [TCMDC-135858] |  |  | 11.73 | 16.12 | 2.48 |  |  |  |  | 3 |  |  |  |  | 0 | inhibition at 2 µM ([1]; Plasmodium falciparum, PfDGFA at 2µM, 24h preincubation with gametocytes, average of replicates, read-out: Average inhibition male (%)): 85.1%; inhibition at 2 µM ([1]; Plasmodium falciparum, PfDGFA at 2µM, 24h preincubation with gametocytes, replicate R1, read-out: % inhibition male (individual replicates) R1): 80.4%; inhibition at 2 µM ([1]; Plasmodium falciparum, PfDGFA at 2µM, 24h preincubation with gametocytes, replicate R2, read-out: % inhibition male (individual replicates) R2): 88.6%; inhibition at 2 µM ([1]; Plasmodium falciparum, PfDGFA at 2µM, 24h preincubation with gametocytes, replicate R4, read-out: % inhibition male (individual replicates) R4): 86.5%; IC50 ([1]; Plasmodium falciparum): 1370 nM; inhibition at 2 µM ([2]; Plasmodium falciparum, PfDGFA at 2µM, 24h preincubation with gametocytes, average of replicates, read-out: Average inhibition female (%)): 23%; inhibition at 2 µM ([2]; Plasmodium falciparum, PfDGFA at 2µM, 24h preincubation with gametocytes, replicate R1, read-out: % inhibition female (individual replicates) R1): 22.7%; inhibition at 2 µM ([2]; Plasmodium falciparum, PfDGFA at 2µM, 24h preincubation with gametocytes, replicate R2, read-out: % inhibition female (individual replicates) R2): 28.7%; inhibition at 2 µM ([2]; Plasmodium falciparum, PfDGFA at 2µM, 24h preincubation with gametocytes, replicate R3, read-out: % inhibition female (individual replicates) R3): 18.7%; inhibition at 2 µM ([2]; Plasmodium falciparum, PfDGFA at 2µM, 24h preincubation with gametocytes, replicate R4, read-out: % inhibition female (individual replicates) R4): 21.9%; IC50 ([2]; Plasmodium falciparum): 6490 nM |
| CS(=O)(=O)O.FC(F)(F)COc1c(CCNCCCCNCCc2ccc3ccccc3c2OCC(F)(F)F)ccc2ccccc12 [TCMDC-137169] | 810 | 1260 | 3.23 | 2.63 | 2.09 |  |  |  |  |  |  |  |  |  |  | Average inhibition male (%) [1, 11]: 91.7%; % inhibition male (individual replicates) R1 [1, 12]: 101.1%; % inhibition male (individual replicates) R3 [1, 13]: 96.8%; % inhibition male (individual replicates) R4 [1, 14]: 99.1%; Average inhibition female (%) [2, 11]: 87.0%; % inhibition female (individual replicates) R1 [2, 12]: 87.1%; % inhibition female (individual replicates) R3 [2, 13]: 97.3%; % inhibition female (individual replicates) R4 [2, 14]: 102.2% |
| CCCCOc1ccc(CNCCCCCCNCc2ccc(OCCCC)c3ccccc23)c2ccccc12.CS(=O)(=O)O [TCMDC-137281] | 550 | 550 | 2.64 | 1.45 | 2.64 | 88.9 | 95.9 | 90.2 | 93.5 | 4 | 94.7 | 94.0 | 97.9 | 90.5 | 4 |  |
| CS(=O)(=O)O.FC(F)(F)COc1ccc(CCNCCCCNCCc2ccc(OCC(F)(F)F)c3ccccc23)c2ccccc12 [TCMDC-137282] | 510 | 1380 | 4.68 | 2.39 | 1.73 |  |  |  |  |  |  |  |  |  |  | Average inhibition male (%) [1, 11]: 98.5%; % inhibition male (individual replicates) R1 [1, 12]: 98.3%; % inhibition male (individual replicates) R4 [1, 14]: 97.4%; Average inhibition female (%) [2, 11]: 56.0%; % inhibition female (individual replicates) R1 [2, 12]: 58.1%; % inhibition female (individual replicates) R3 [2, 13]: 59.1%; % inhibition female (individual replicates) R4 [2, 14]: 54.8% |

Second part, led by results:

| IC50 [1] [nM] | IC50 [2] [nM] | SMILES | Selectivity Ratio M [1] | Tox50 (HepG2 cells) [µM] | Selectivity ratio F [2] | Average inhibition male (%) [1, 3] [%] | % inhibition male (individual replicates) R1 [1, 4] [%] | % inhibition male (individual replicates) R3 [1, 5] [%] | % inhibition male (individual replicates) R4 [1, 6] [%] | HitlevelM ([1]; 2µM) | Average inhibition female (%) [2, 3] [%] | % inhibition female (individual replicates) R1 [2, 4] [%] | % inhibition female (individual replicates) R3 [2, 5] [%] | % inhibition female (individual replicates) R4 [2, 6] [%] | HitlevelF ([2]; 2µM) | further results |
| --- | --- | --- | --- | --- | --- | --- | --- | --- | --- | --- | --- | --- | --- | --- | --- | --- |
| 1300 | 4730 | CCN(CC)CCOc1ccc(C(O)(C#CC(O)(c2ccc(C)cc2)c2ccc(OCCN(CC)CC)cc2)c2ccc(C)cc2)cc1 (stereo not shown) [TCMDC-137198] | 2.02 | 2.63 | 0.55 | 80.0 | 79.9 | 84.8 | 81.8 | 4 | 31.2 | 31.1 | 8.3 | 48.8 | 0 |  |
| 610 | 1270 | CCN(CC)CCOc1ccc(C(O)(C#CC(O)(c2ccc(Br)cc2)c2ccc(OCCN(CC)CC)cc2)c2ccc(Br)cc2)cc1 (stereo not shown) [TCMDC-137199] | 3.23 | 1.99 | 1.56 | 78.4 | 76.2 | 84.3 | 81.8 | 4 | 19.7 | 20.5 | 18.5 | 25.4 | 0 |  |
| 1540 | 2990 | CCN(CC)CCOc1ccc(C(O)(C#CC(O)(c2ccc(OCCN(CC)CC)cc2)c2ccc([N+](=O)[O-])cc2)c2ccc([N+](=O)[O-])cc2)cc1 (stereo not shown) [TCMDC-137201] | 2.26 | 3.49 | 1.17 | 85.9 | 82.3 | 94.6 | 93.0 | 4 | 55.9 | 46.7 | 67.0 | 64.5 | 2 |  |

Source: paper PMC10584170, “Machine learning-based phenotypic imaging to characterise the targetable biology of Plasmodium falciparum male gametocytes for the development of transmission-blocking antimalarials” (PLOS Pathogens, 2023)
